Target: T1, MLXBIR3SG (Homo sapiens, UniProt Q96CA5, S150G)
T1 construct: His6 tag (MGSSHHHHHH, followed by linker with LVPRGS thrombin site) (N)
T1 sequence (Q96CA5 with tags, fused parts or gaps S150G): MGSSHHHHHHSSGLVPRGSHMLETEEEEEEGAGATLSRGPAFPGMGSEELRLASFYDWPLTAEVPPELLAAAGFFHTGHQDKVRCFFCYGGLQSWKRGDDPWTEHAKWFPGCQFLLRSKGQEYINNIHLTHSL
Assay: Fluorescence Polarization Peptide Binding Assay (competition with AVP-diPhe-FAM probe)
Conditions: MLXBIR3SG at 30 nM, 5 nM AVP-diPhe-FAM probe, Ki determined from IC50 values, unit inferred
Description: In the following experiments was used a chimeric BIR domain referred to as MLXBIR3SG in which 11 of 110 residues correspond to those found in XIAP-BIR3, while the remainder correspond to ML-IAP-BIR. […] The improved caspase-9 inhibition of the chimeric BIR domain MLXBIR3SG has been correlated with increased inhibition of doxorubicin-induced apoptosis when transfected into MCF7 cells.
Polarization experiments were performed on an Analyst HT 96-384 (Molecular Devices Corp.) according to the procedure of Keating, S. M., Marsters, J, Beresini, M., Ladner, C., Zioncheck, K., Clark, K., Arellano, F., and Bodary., S. (2000) in Proceedings of SPIE: In Vitro Diagnostic Instrumentation (Cohn, G. E., Ed.) pp 128-137, Bellingham, Wash. Samples for fluorescence polarization affinity measurements were prepared by addition of 1:2 serial dilutions starting at a final concentration of 5 μM of MLXBIR3SG in polarization buffer (50 mM Tris [pH 7.2], 120 mM NaCl, 1% bovine globulins 5 mM DTT and 0.05% octylglucoside) to 5-carboxyflourescein-conjugated AVPdi-Phe-NH2 (AVP-diPhe-FAM) at 5 nM final concentration.
The reactions were read after an incubation time of 10 minutes at room temperature with standard cut-off filters for the fluorescein fluorophore (λex=485 nm; λem=530 nm) in 96-well black HE96 plates (Molecular Devices Corp.). Fluorescence values were plotted as a function of the protein concentration, and the IC50s were obtained by fitting the data to a 4-parameter equation using Kaleidograph software (Synergy software, Reading, Pa.). Competition experiments were performed by addition of the MLXBIR3SG at 30 nM to wells containing 5 nM of the AVP-diPhe-FAM probe as well as 1:3 serial dilutions of antagonist compounds starting at a concentration of 300 μM in the polarization buffer. Samples were read after a 10-minute incubation. Fluorescence polarization values were plotted as a function of the antagonist concentration, and the IC50 values were obtained by fitting the data to a 4-parameter equation using Kaleidograph software (Synergy software, Reading, Pa.). Inhibition constants (Ki) for the antagonists were determined from the IC50 values.

First: C[C@@H](NCCO)C(=O)N[C@H](C(=O)N1CCC[C@H]1c1nc2c(-c3ccccc3)nccc2s1)C1CCCCC1 [compound 48]
Second: C[C@H](NCCO)C(=O)N[C@H](C(=O)N1CCC[C@H]1c1nc2c(-c3ccccc3)ccnc2s1)C1CCCCC1 [compound 60]
The Ki of the first is 54-fold higher: 7870 nM for the first, 145 nM for the second. The second binds more tightly here.

Compared with C[C@H](NCCO)C(=O)N[C@H](C(=O)N1CCC[C@H]1c1nc2c(-c3ccccc3)nccc2s1)c1ccccc1 [compound 54], CN[C@@H](C)C(=O)N[C@H](C(=O)N1CCC[C@H]1c1nc2c(-c3ccccc3)ncnc2s1)C1CCN(C(=O)COC)CC1 [compound 56] is 1.6-fold lower in Ki: 55.6 nM for the first, 33.8 nM for the second.
